From ChEMBL document CHEMBL4765227, “Hit to lead optimization of a series of N-[4-(1,3-benzothiazol-2-yl)phenyl]acetamides as monoacylglycerol lipase inhibitors with potential anticancer activity” (Eur J Med Chem, 2016)

Assays:
Assay type in all cases: functional
Conditions in all cases: read-out: GI
[1] = system: MDA-MB-468; assay: Growth inhibition of human MDA-MB-468 cells at 10 uM incubated for 48 hrs by sulforhodamine B assay relative to control
[2] = system: IGROV-1; assay: Growth inhibition of human IGROV-1 cells at 10 uM incubated for 48 hrs by sulforhodamine B assay relative to control
[3] = system: SK-MEL-5; assay: Growth inhibition of human SK-MEL-5 cells at 10 uM incubated for 48 hrs by sulforhodamine B assay relative to control
[4] = system: MDA-MB-231; assay: Growth inhibition of human MDA-MB-231 cells at 10 uM incubated for 48 hrs by sulforhodamine B assay relative to control
[5] = system: MCF7; assay: Growth inhibition of human MCF7 cells at 10 uM incubated for 48 hrs by sulforhodamine B assay relative to control
[6] = system: MOLT-4; assay: Growth inhibition of human MOLT-4 cells at 10 uM incubated for 48 hrs by sulforhodamine B assay relative to control
[7] = system: SF-539; assay: Growth inhibition of human SF-539 cells at 10 uM incubated for 48 hrs by sulforhodamine B assay relative to control
[8] = system: HCT-116; assay: Growth inhibition of human HCT-116 cells at 10 uM incubated for 48 hrs by sulforhodamine B assay relative to control
[9] = system: NCI-H522; assay: Growth inhibition of human NCI-H522 cells at 10 uM incubated for 48 hrs by sulforhodamine B assay relative to control
[10] = system: HT-29; assay: Growth inhibition of human HT-29 cells at 10 uM incubated for 48 hrs by sulforhodamine B assay relative to control
[11] = system: HL-60(TB); assay: Growth inhibition of human HL-60(TB) cells at 10 uM incubated for 48 hrs by sulforhodamine B assay relative to control
[12] = system: NCI/ADR-RES; assay: Growth inhibition of human NCI/ADR-RES cells at 10 uM incubated for 48 hrs by sulforhodamine B assay relative to control
[13] = system: Hs-578T; assay: Growth inhibition of human Hs-578T cells at 10 uM incubated for 48 hrs by sulforhodamine B assay relative to control
[14] = system: PC-3; assay: Growth inhibition of human PC-3 cells at 10 uM incubated for 48 hrs by sulforhodamine B assay relative to control
[15] = system: NCI-H23; assay: Growth inhibition of human NCI-H23 cells at 10 uM incubated for 48 hrs by sulforhodamine B assay relative to control
[16] = system: OVCAR-8; assay: Growth inhibition of human OVCAR-8 cells at 10 uM incubated for 48 hrs by sulforhodamine B assay relative to control
[17] = system: 786-0; assay: Growth inhibition of human 786-0 cells at 10 uM incubated for 48 hrs by sulforhodamine B assay relative to control
[18] = system: DU-145; assay: Growth inhibition of human DU-145 cells at 10 uM incubated for 48 hrs by sulforhodamine B assay relative to control
[19] = system: U-251; assay: Growth inhibition of human U-251 cells at 10 uM incubated for 48 hrs by sulforhodamine B assay relative to control
[20] = system: LOX IMVI; assay: Growth inhibition of human LOX IMVI cells at 10 uM incubated for 48 hrs by sulforhodamine B assay relative to control
[21] = system: UO-31; assay: Growth inhibition of human UO-31 cells at 10 uM incubated for 48 hrs by sulforhodamine B assay relative to control
[22] = system: SN12C; assay: Growth inhibition of human SN12C cells at 10 uM incubated for 48 hrs by sulforhodamine B assay relative to control
[23] = system: COLO 205; assay: Growth inhibition of human COLO 205 cells at 10 uM incubated for 48 hrs by sulforhodamine B assay relative to control
[24] = system: A549; assay: Growth inhibition of human A549/ATCC cells at 10 uM incubated for 48 hrs by sulforhodamine B assay relative to control
[25] = system: M14; assay: Growth inhibition of human M14 cells at 10 uM incubated for 48 hrs by sulforhodamine B assay relative to control
[26] = system: CAKI-1; assay: Growth inhibition of human CAKI-1 cells at 10 uM incubated for 48 hrs by sulforhodamine B assay relative to control
[27] = system: HOP-62; assay: Growth inhibition of human HOP-62 cells at 10 uM incubated for 48 hrs by sulforhodamine B assay relative to control
[28] = system: KM12; assay: Growth inhibition of human KM12 cells at 10 uM incubated for 48 hrs by sulforhodamine B assay relative to control
[29] = system: BT-549; assay: Growth inhibition of human BT-549 cells at 10 uM incubated for 48 hrs by sulforhodamine B assay relative to control
[30] = system: TK-10; assay: Growth inhibition of human TK-10 cells at 10 uM incubated for 48 hrs by sulforhodamine B assay relative to control
[31] = system: UACC-62; assay: Growth inhibition of human UACC-62 cells at 10 uM incubated for 48 hrs by sulforhodamine B assay relative to control
[32] = system: K562; assay: Growth inhibition of human K562 cells at 10 uM incubated for 48 hrs by sulforhodamine B assay relative to control
[33] = system: SR; assay: Growth inhibition of human SR cells at 10 uM incubated for 48 hrs by sulforhodamine B assay relative to control
[34] = system: OVCAR-4; assay: Growth inhibition of human OVCAR-4 cells at 10 uM incubated for 48 hrs by sulforhodamine B assay relative to control
[35] = system: NCI-H322M; assay: Growth inhibition of human NCI-H322M cells at 10 uM incubated for 48 hrs by sulforhodamine B assay relative to control
[36] = system: ACHN; assay: Growth inhibition of human ACHN cells at 10 uM incubated for 48 hrs by sulforhodamine B assay relative to control
[37] = system: SK-OV-3; assay: Growth inhibition of human SK-OV-3 cells at 10 uM incubated for 48 hrs by sulforhodamine B assay relative to control
[38] = system: MDA-MB-435; assay: Growth inhibition of human MDA-MB-435 cells at 10 uM incubated for 48 hrs by sulforhodamine B assay relative to control
[39] = system: RXF 393; assay: Growth inhibition of human RXF 393 cells at 10 uM incubated for 48 hrs by sulforhodamine B assay relative to control
[40] = system: CCRF-CEM; assay: Growth inhibition of human CCRF-CEM cells at 10 uM incubated for 48 hrs by sulforhodamine B assay relative to control
[41] = system: NCI-H226; assay: Growth inhibition of human NCI-H226 cells at 10 uM incubated for 48 hrs by sulforhodamine B assay relative to control
[42] = system: OVCAR-3; assay: Growth inhibition of human OVCAR-3 cells at 10 uM incubated for 48 hrs by sulforhodamine B assay relative to control
[43] = system: NCI-H460; assay: Growth inhibition of human NCI-H460 cells at 10 uM incubated for 48 hrs by sulforhodamine B assay relative to control
[44] = system: SF-295; assay: Growth inhibition of human SF-295 cells at 10 uM incubated for 48 hrs by sulforhodamine B assay relative to control

O=C(CN1C(=O)C(=O)c2ccccc21)Nc1ccc(-c2nc3ccccc3s2)cc1
inhibition of growth at 10 µM [1]: 72.6% | inhibition of growth at 10 µM [2]: -0.62% | inhibition of growth at 10 µM [3]: 16.6% | inhibition of growth at 10 µM [4]: 6.18% | inhibition of growth at 10 µM [5]: 44.5% | inhibition of growth at 10 µM [6]: 47.5% | inhibition of growth at 10 µM [7]: -0.12% | inhibition of growth at 10 µM [8]: 9.11% | inhibition of growth at 10 µM [9]: 4.88% | inhibition of growth at 10 µM [10]: -6.9% | inhibition of growth at 10 µM [11]: 5.84% | inhibition of growth at 10 µM [12]: -2.79% | inhibition of growth at 10 µM [13]: -14.2% | inhibition of growth at 10 µM [14]: 28.6% | inhibition of growth at 10 µM [15]: 4.61% | inhibition of growth at 10 µM [16]: 4.11% | inhibition of growth at 10 µM [17]: -6.97% | inhibition of growth at 10 µM [18]: 2.58% | inhibition of growth at 10 µM [19]: 8.34% | inhibition of growth at 10 µM [20]: -0.17% | inhibition of growth at 10 µM [21]: 15.5% | inhibition of growth at 10 µM [22]: 4.5% | inhibition of growth at 10 µM [23]: 0.13% | inhibition of growth at 10 µM [24]: 2.72% | inhibition of growth at 10 µM [25]: -6.04% | inhibition of growth at 10 µM [26]: -1.81% | inhibition of growth at 10 µM [27]: -12.7% | inhibition of growth at 10 µM [28]: 0.88% | inhibition of growth at 10 µM [29]: -3.83% | inhibition of growth at 10 µM [30]: -13.3% | inhibition of growth at 10 µM [31]: -6.27% | inhibition of growth at 10 µM [32]: 21.3% | inhibition of growth at 10 µM [33]: 15.2% | inhibition of growth at 10 µM [34]: 4.68% | inhibition of growth at 10 µM [35]: -0.03% | inhibition of growth at 10 µM [36]: -0.81% | inhibition of growth at 10 µM [37]: -10.3% | inhibition of growth at 10 µM [38]: -3.52% | inhibition of growth at 10 µM [39]: 4.81% | inhibition of growth at 10 µM [40]: 21.8% | inhibition of growth at 10 µM [41]: 9.37% | inhibition of growth at 10 µM [42]: 10.9% | inhibition of growth at 10 µM [43]: -2.87% | inhibition of growth at 10 µM [44]: 0.13%

O=C(CN(c1ccccc1)c1ccccc1)Nc1ccc(-c2nc3ccccc3s2)cc1
inhibition of growth at 10 µM [1]: 61.3% | inhibition of growth at 10 µM [2]: 4.71% | inhibition of growth at 10 µM [3]: 7.11% | inhibition of growth at 10 µM [4]: -3.01% | inhibition of growth at 10 µM [5]: 52% | inhibition of growth at 10 µM [6]: -4.25% | inhibition of growth at 10 µM [7]: 4.21% | inhibition of growth at 10 µM [8]: -5.38% | inhibition of growth at 10 µM [9]: 2.41% | inhibition of growth at 10 µM [10]: -5.89% | inhibition of growth at 10 µM [11]: -1.45% | inhibition of growth at 10 µM [12]: -9.25% | inhibition of growth at 10 µM [13]: 14.3% | inhibition of growth at 10 µM [14]: 2.35% | inhibition of growth at 10 µM [15]: 3.7% | inhibition of growth at 10 µM [16]: -0.82% | inhibition of growth at 10 µM [17]: -1.87% | inhibition of growth at 10 µM [18]: -5.31% | inhibition of growth at 10 µM [19]: -5.92% | inhibition of growth at 10 µM [20]: 6.1% | inhibition of growth at 10 µM [21]: 3.62% | inhibition of growth at 10 µM [22]: -3.04% | inhibition of growth at 10 µM [23]: -3.6% | inhibition of growth at 10 µM [24]: -5.7% | inhibition of growth at 10 µM [25]: -10.1% | inhibition of growth at 10 µM [26]: 0.37% | inhibition of growth at 10 µM [27]: -5.28% | inhibition of growth at 10 µM [28]: -6.94% | inhibition of growth at 10 µM [29]: -12.2% | inhibition of growth at 10 µM [30]: -2.02% | inhibition of growth at 10 µM [31]: 2.85% | inhibition of growth at 10 µM [32]: 3.89% | inhibition of growth at 10 µM [33]: 2.68% | inhibition of growth at 10 µM [34]: -13.3% | inhibition of growth at 10 µM [35]: -4.73% | inhibition of growth at 10 µM [36]: -13.4% | inhibition of growth at 10 µM [37]: -11.4% | inhibition of growth at 10 µM [38]: -4.11% | inhibition of growth at 10 µM [39]: -5.12% | inhibition of growth at 10 µM [40]: -6.75% | inhibition of growth at 10 µM [41]: -5.48% | inhibition of growth at 10 µM [42]: -4.14% | inhibition of growth at 10 µM [43]: -0.29% | inhibition of growth at 10 µM [44]: -3.15%
